Test results published in patent publication US12396956B2, “Modified release compositions of a gamma-hydroxybutyric acid derivative” (XWPHARMA LTD., priority 2020, dated 2025).

Experiment: Oral bioavailability of γ-hydroxybutyric acid from the prodrug
Conditions: in a patient, oral administration

CC(C)[C@H](N)C(=O)OCCCC(=O)O [compound (1), 4-((L-Valyl)oxy)butanoic acid]
oral bioavailability of γ-hydroxybutyric acid: greater than 60 % F
